These results are taken from US20140378374A1, “METHODS OF TREATMENT” (GlaxoSmithKline Intellectual Property (No.2) Limited, priority 2013, published 2014).

For series [1], the system named is patients with T2D and RI. Type of series: in vivo, human. As to conditions: for Model-adjusted change from baseline A1C, LS mean (SE): ANCOVA. As to the method:
Therapies for type 2 diabetes mellitus (T2DM) with renal impairment (RI) are limited and may require dose adjustment. This 52-week randomized, double blind, active controlled, Phase III parallel group study examined efficacy/safety of QW Albi injections (30 mg uptitrated to 50 mg if needed) vs daily Sita in patients with T2D and RI (eGFR≧15 and <90 mL/min/1.73 m^2) and A1C 7-10% on lifestyle (11% of subjects) or metformin (Met), thiazoldinedone (TZD), sulfonylureas (SU), or any combination (89% of patients). […] Primary endpoint was A1C change at week 26 for Albi vs Sita (noninferiority with subsequent superiority analysis). Eligible subjects were men or non pregnant, nonlactating women, 18 years of age or older, with a historical diagnosis of T2DM who were experiencing inadequate glycemic control on their current regimen of diet and exercise or their antidiabetic therapy of metformin, TZD, SU, or any combination of these OAD medications.

For series [2], the system named is patients with type 2 diabetes. As to conditions: head-to-head trial; cited from earlier work.
The conditions of series [3]: each group with CKD (mild, moderate, severe); cited from earlier work.
Where [4] appears, read: Week 26, Moderate RI (eGFR 30-59).
Where [5] appears, read: Week 26, Severe RI (eGFR 15-29).

Structures are written as SMILES. Where two headings read alike, the source gives them in different places.

For the compound `N[C@@H](CC(=O)N1CCn2c(nnc2C(F)(F)F)C1)Cc1cc(F)c(F)cc1F` [Sitagliptin, sitagliptin, reference compound], the “Week 26 A1C, mean” value in series [1] (Any RI (eGFR 15-89)) came to 7.68%. For the same compound, the “Week 26 A1C, mean” value in series [1] (Mild RI (eGFR 60-89 mL/min/1.73 m2)) is recorded as 7.50%. Besides, the “Week 26 A1C, mean” value in series [1] (Moderate RI (eGFR 30-59)) is listed as 7.91%. The “Week 26 A1C, mean” value in series [1] (Severe RI (eGFR 15-29)) was 7.67%. Further, in series [1] (Week 26), the “A1C<7% achieved, patients” value came out at 30.5%; the FPG change was -3.9 mg/dL; the weight change was -0.2 kg. For the same compound, in series [1] (Week 26, Any RI (eGFR 15-89)), the “Model-adjusted change from baseline A1C, LS mean (SE)” value (shortened to “Model-adjusted change … (SE)”) is given as −0.52% and the “Change from baseline A1C, mean (SD)” value is reported as −0.54%. In addition, in series [1] (Week 26, Mild RI (eGFR 60-89)), the “Model-adjusted change … (SE)” value is listed as −0.67% and the “Change from baseline A1C, mean (SD)” value is recorded as −0.66%. For the same compound, in series [1] (setting [4]), the “Model-adjusted change … (SE)” value is recorded as −0.31% and the “Change from baseline A1C, mean (SD)” value was −0.37%. Besides, in series [1] (setting [5]), the “Model-adjusted change … (SE)” value was −0.61% and the “Change from baseline A1C, mean (SD)” value is −0.65%. Besides, in series [1] (both, human, in vivo, 26 weeks), the “Adverse Event rate: diarrhea” value is 6.1%, the “Adverse Event rate: nausea” value came to 2.8%, the “Adverse Event rate: vomiting” value came out at 0.8% and the Hypoglycemia rate came out at 13.4%. Further, in series [1] (both, human, in vivo, 26 weeks), the “Hypoglycemia, severe (number)” value came to 2; the “Injection site reaction rate” value was determined as 2.8%; the “On-therapy adverse event: Constipation” value is on record as 5 (2.0) n (%); the “On-therapy adverse event: Diarrhea” value was 15 (6.1) n (%). In addition, in series [1] (both, human, in vivo, 26 weeks), the “On-therapy adverse event: Hypertension” value is 15 (6.1) n (%), the “On-therapy adverse event: Nasopharyngitis” value is given as 16 (6.5) n (%), the “On-therapy adverse event: Upper respiratory tract infection” value is 16 (6.5) n (%) and the “On-therapy adverse event: Urinary tract infection” value is 15 (6.1) n (%).

For the compound `CCCCCCCCCCCCCCCC(=O)N[C@@H](CCC(=O)NCCCC[C@H](NC(=O)[C@H](C)NC(=O)[C@H](C)NC(=O)[C@H](CCC(N)=O)NC(=O)CNC(=O)[C@H](CCC(=O)O)NC(=O)[C@H](CC(C)C)NC(=O)[C@H](Cc1ccc(O)cc1)NC(=O)[C@H](CO)NC(=O)[C@H](CO)NC(=O)[C@@H](NC(=O)[C@H](CC(=O)O)NC(=O)[C@H](CO)NC(=O)[C@@H](NC(=O)[C@H](Cc1ccccc1)NC(=O)[C@@H](NC(=O)CNC(=O)[C@H](CCC(=O)O)NC(=O)[C@H](C)NC(=O)[C@@H](N)Cc1cnc[nH]1)[C@@H](C)O)[C@@H](C)O)C(C)C)C(=O)N[C@@H](CCC(=O)O)C(=O)N[C@@H](Cc1ccccc1)C(=O)N[C@H](C(=O)N[C@@H](C)C(=O)N[C@@H](Cc1c[nH]c2ccccc12)C(=O)N[C@@H](CC(C)C)C(=O)N[C@H](C(=O)N[C@@H](CCCNC(=N)N)C(=O)NCC(=O)N[C@@H](CCCNC(=N)N)C(=O)NCC(=O)O)C(C)C)[C@@H](C)CC)C(=O)O` [liraglutide, reference compound], in series [2], the nausea, percentage is 29% and the vomiting, percentage is recorded as 9%. The “exposure vs group with normal renal function” value in series [3] is reported as “reduced exposure”.
